Data on 2 molecules can be found in ChEMBL document CHEMBL5518247 (J Med Chem, 2024).

Series [1] in a line: Oral bioavailability in ICR mouse at 20 mg/kg measured up to 48 hrs by LC-MS/MS analysis. Particulars: in vivo. In kind it is ADME, organism-based.
Series [2] in a line: Oral absorption in C57BL/6J mouse at 20 mg/kg measured up to 48 hrs by LC-MS/MS analysis. In kind it is ADME, organism-based. Particulars: in vivo.
Series [3] is described as follows: Inhibition of recombinant PKCgamma (unknown origin) expressed in baculovirus infected in Sf9 cells using biotin-Ahx-peptide as substrate. Set-up: species or system Homo sapiens.

Each structure is given as a SMILES string. Where only a bound is given, the exact number is not on record here.

One may read the bioavailability as dose-corrected exposure relative to a reference, in per cent. A lower bioavailability goes with poor availability. Take `C=CC(=O)Nc1ccc2[nH]c(=O)n(C3CCN(Cc4ccc(-c5nc6cc[nH]c(=O)c6cc5-c5ccccc5)cc4)CC3)c2c1` [Borussertib]: in series [1], the bioavailability is under 5%. In addition, the Fa at 48 h in series [2] is 39.6%. As a reminder, the IC50 is the point on the concentration scale where inhibition reaches its midpoint. For the molecule `Cc1n[nH]c2ccc(-c3cncc(OC[C@H](N)Cc4c[nH]c5ccccc45)c3)cc12`, the IC50 in series [3] was found to be 1.4 µM.
